Experimental data reported in patent publication US8969088B2, “Substrate mimicking intercellular lipids in stratum corneum and method of evaluating skin roughening using the same” (Shiseido Company, Ltd., priority 2008, dated 2015).

Assay: Myelin figure formation on exposing the lipids-mimicking substrate to surfactant (microscopy)
Settings: aqueous solution 5.0 mg/cm^3, 25° C., 6 hours, lipid membrane 50 μm
Description: Multiple substrates mimicking intercellular lipids in stratum corneum, each having a lipid membrane controlled to a thickness of 50 μm were exposed to an aqueous solution (5.0 mg/cm^3) of SDS (99.0%) (Nacalai Tesque, Inc., Kyoto, Japan) at a temperature of 25° C. for 6 hours. Each exposed substrate was rinsed with a small amount of water and dried, and used for the following evaluation test.
Upon examination of surfactants other than SDS, a myelin figure was formed with some and not formed with others. For each of the examined surfactants, the shortest distance from the edge of the substrate to the tip of the myelin figure (hereunder referred to as “myelin figure formation distance”) was measured.

## CCCCCCCCCCCCOS(=O)(=O)[O-].[Na+] [SDS]
  myelin figure formation: formation of a myelin figure within a constant range
